Test results published in article PMC7771853, “Differential effects of novel kappa opioid receptor antagonists on dopamine neurons using acute brain slice electrophysiology” (PLoS ONE, 2020).

Assays:
VTA neurons = test: Wash in of antagonist: change in Iholding in VTA neurons; assay type: cell-based, rat; conditions: for change in Iholding on wash in: across the concentrations tested
KOR = system: KOR; design: method as in PMID 21832171; conditions: cited from earlier work

Structure (SMILES): CCc1cc(F)c2nc(N3CCC(NC4CCOCC4)CC3)c(-c3nc(C)no3)c(C)c2c1 [BTRX-335140, 1-(6-ethyl-8-fluoro-4-methyl-3-(3-methyl-1,2,4-oxadiazol-5-yl)quinolin-2-yl)-N-(tetrahydro-2H-pyran-4-yl)piperidin-4 amine]
- change in Iholding on wash in (VTA neurons): means very close to zero

Structure (SMILES): CC(C)CNCc1ccc(-c2ccccc2S(=O)(=O)N2CCCC2)cc1 [PF-04455242, 2-methyl-N-((2'-(pyrrolidin-1-ylsulfonyl)biphenyl-4-yl)methyl)propan-1-amine]
- extracellular signal-regulated kinase (ERK) phosphorylation (KOR; HEK293 cells expressing KOR ref 21): did not generate
- c-Jun N terminal kinase (JNK) phosphorylation (KOR; HEK293 cells expressing KOR, compared to other KOR antagonists ref 21): minimal
- neurons with outward current independent of KOR activation (VTA neurons; 1 μM antagonist): 3/8

Structure (SMILES): Cc1cc(C)cc([C@@H]2CCCN2Cc2ccc(Oc3ccc(C(N)=O)cc3F)cc2)c1 [JNJ-67953964, (S)-3-fluoro-4-(4-((2-(3,5-dimethylphenyl)pyrrolidin-1-yl)methyl)phenoxy)benzamide]
- neurons with possible inward current on wash in (VTA neurons; 10 nM antagonist): 3 of 13

Structure (SMILES): CCc1ccc2nc(N3CCC(NCC4(C)COC4)CC3)c(-c3nc(C)no3)cc2c1 [BTRX-395750]
- change in Iholding on wash in (VTA neurons): means very close to zero
